Type in all cases: in vivo
Experiment [1] concerns Medicago truncatula plants. The experiment in a line: Lipid peroxidation (leaf MDA/TBARS content) in drought-stressed plants. Conditions: for leaf MDA content (lipid peroxidation): diluted in 70% (v/v) MetOH, FIG. 1. The text has this:
Cellular damage in leaves can be measured by determining lipid peroxidation (Malondialdehyde [MDA] content) and hydrogen peroxide (H2O2) levels. Lipid peroxidation is a widely used stress indicator of plant membranes. For example, the method described by Heath and Packer is the basic protocol used or adapted in numerous studies dealing with lipid peroxidation. See Heath R L, Packer L. 1968, Photoperoxidation in isolated chloroplasts. I. Kinetics and stoichiometry of fatty acid peroxidation. Archives in Biochemistry and Biophysics 125, 189-198. Measuring hydrogen peroxide levels is also well known in the art.
Mature (40 d) Medicago truncatula ecotype Jemalong A17 plants were used for the purposes of this study. These were grown in soil medium under controlled, optimal growth conditions and were then subjected to drought stress. Drought was imposed by withholding watering for 9 d (for detailed growth and stress conditions see Filippou et al., 2011). Both NOSH and NOSH-aspirin were applied at 100 μM concentration by foliar spraying at the start of stress imposition. The hybrid donors were diluted in 70% (v/v) and 30% (v/v) methanol, 20% (v/v) acetone or 20% (v/v) DMSO. Cellular damage was evaluated by lipid peroxidation levels (TBARS content) and hydrogen peroxide (H2O2) content as previously described (Filippou et al., 2011; Tanou et al., 2012), while osmoprotective capacity was evaluated by proline content (ninhydrin assay) as previously described (Antoniou et al., 2013). Real-time RT-PCR gene expression analysis was carried out using a Biorad IQ5 thermocycler as previously described (Filippou et al., 2013b). Relative quantification of gene expression and statistical analysis of all qRT-PCR data (pairwise fixed reallocation randomization test) were performed using the REST software according to Pfaffl et al. (2002). The actin 11 gene was used as a housekeeping reference gene. All analyses were carried out using three independent biological pools of samples as replicates (with a minimum of three independent plants per pooled sample).
(§1) An examination of cellular damage levels was performed by means of spectrophotometric determination of lipid peroxidation.

The subject of experiment [2] is Medicago sativa plants. The experiment in a line: Macroscopic (phenotypic) observation of drought-stressed plants. Particulars: for phenotype (vitality, turgor, greening): 100 μM foliar spraying, 30% MetOH, 6 d after stress imposition, vs drought-stressed plants, FIG. 9; for recovery capacity (phenotype): day 7 (6 d drought + 1 d rewatering), vs drought-stressed alone, FIG. 10; for phenotype after second wave of drought stress: day 13, another 6 days without watering, FIG. 11. On the procedure:
where cPTIO represents a NO inhibitor, while HXL is a H2S inhibitor. In addition to the previous setup of sampling control and drought-stressed samples, plants were re-watered at 6 d after drought stress imposition and additional sampling was carried out 1 d after rewatering to examine recovery of plants, while a second wave of drought stress was imposed to see if primed plants develop a longer-term, ‘memory’ effect. Plant Material and Stress Conditions
(§2) Mature (42 d) Medicago sativa plants were used for the purposes of this study. These were grown in soil medium under controlled, optimal growth conditions and were then subjected to drought stress. Drought was imposed by withholding watering until drought symptoms (loss of turgour, wilting, chlorosis) were observed (6 d after stress imposition). Samples were then re-watered to observe recovery potential after 1 day (7 d). Both NOSH and NOSH-aspirin were applied at 100 μM concentration by foliar spraying at the start of stress imposition. The hybrid donors were diluted in 30% (v/v) methanol. Physiological parameters (stomatal conductance and chlorophyll fluorescence) were measured with a DT-Porometer AP4 (Delta-TDevices, Cambridge, UK) and an OptiSci OS-30p chlorophyll fluorometer (Opti-Sciences, Hudson, N.H., USA) respectively (Filippou et al., 2013). Chlorophyll fluorescence (Fv/Fm) of leaves represents the maximum photochemical efficiency of photosystem II (PSII). Cellular damage was evaluated by lipid peroxidation levels (TBARS content), nitric oxide (NO) content (nitrosative stress) and hydrogen peroxide (H2O2) content (oxidative stress) as previously described (Filippou et al., 2011; Tanou et al., 2012), while osmoprotective capacity was evaluated by proline content (ninhydrin assay) as previously described (Antoniou et al., 2013). Antioxidant enzyme activities (SOD and CAT) were measured as previously described (Filippou et al., 2014). Real-time RT-PCR gene expression analysis was carried out using a Biorad IQ5 thermocycler as previously described (Filippou et al., 2013). Relative quantification of gene expression and statistical analysis of all qRT-PCR data (pairwise fixed reallocation randomization test) were performed using the REST software according to Pfaffl et al. (2002). The actin 11 gene was used as a housekeeping reference gene. All analyses were carried out using three independent biological pools of samples as replicates (with a minimum of fifteen independent plants per pooled sample). The experimental setup is shown schematically in FIG. 8.

In experiment [3] the test system is Medicago sativa plants. The experiment in a line: Physiological measurements (stomatal conductance, chlorophyll fluorescence) in drought-stressed plants. Conditions: 100 μM; vs drought-stressed samples; FIG. 12. As for the experimental part:
as §2

The test system of experiment [4] is Medicago sativa plants. The experiment in a line: Lipid peroxidation (leaf MDA/TBARS content) in drought-stressed plants. Conditions: FIG. 13. On the procedure:
as §2, §1

The test system of experiment [5] is Medicago sativa plants. The experiment in a line: Hydrogen peroxide content in leaves of drought-stressed plants. Conditions: FIG. 14A. On the procedure:
as §2
Abiotic stress conditions are associated with increased levels of reactive oxygen (ROS) and reactive nitrogen (RNS) species content, which are toxic for the cells. During such conditions, the production of ROS and RNS exceeds the capacity of the antioxidative defense systems to remove them, causing nitro-oxidative stress.

The subject of experiment [6] is Medicago sativa plants. The experiment in a line: Nitric oxide content in leaves of drought-stressed plants. Particulars: 100 μM; vs drought-stressed samples; FIG. 14B. As for the experimental part:
as §2, with “Antioxidant enzyme activities (SOD and CAT) were measured as previously described (Filippou et al., 2014). Real-time RT-PCR gene expression analysis was carried out using a Biorad IQ5 thermocycler as previously described (Filippou et al., 2013). Relative quantification of gene expression and statistical analysis of all qRT-PCR data (pairwise fixed reallocation randomization test) were performed using the REST software according to Pfaffl et al. (2002). The actin 11 gene was used as a housekeeping reference gene. All analyses were carried out using three independent biological pools of samples as replicates (with a minimum of fifteen independent plants per pooled sample). The experimental setup is shown schematically in FIG. 8.” left out

For experiment [7], the system named is Medicago sativa plants. The experiment in a line: Proline content (ninhydrin assay) in leaves of drought-stressed plants. Particulars: 100 μM; vs drought-stressed alone samples; FIG. 15. As for the experimental part: as §2, with “Antioxidant enzyme activities (SOD and CAT) were measured as previously described (Filippou et al., 2014). Real-time RT-PCR gene expression analysis was carried out using a Biorad IQ5 thermocycler as previously described (Filippou et al., 2013). Relative quantification of gene expression and statistical analysis of all qRT-PCR data (pairwise fixed reallocation randomization test) were performed using the REST software according to Pfaffl et al. (2002). The actin 11 gene was used as a housekeeping reference gene. All analyses were carried out using three independent biological pools of samples as replicates (with a minimum of fifteen independent plants per pooled sample). The experimental setup is shown schematically in FIG. 8.” left out

Experiment [8] relates to Medicago sativa plants. The experiment in a line: Real-time RT-PCR gene expression in leaves of drought-stressed plants. Particulars: FIG. 17; for relative gene expression of genes examined (NR, GST17, Cu/ZnSOD, FeSOD, APX, PIP): after rewatering, vs drought-stressed alone plants; for SOD isoforms (Cu/ZnSOD, FeSOD) relative gene expression: pretreated and stressed vs stressed alone plants. On the procedure:
as §2
Finally, qRT-PCR gene expression analysis was carried out (FIG. 17) for key defense-related genes, including major enzymatic antioxidants (GST17, Cu/ZnSOD, FeSOD, cAPX) linked with ROS scavenging, as well as genes involved in NO biosynthesis (NR). In addition, an aquaporin (PIP) was also examined which is linked with response to water deficit and transport.
On the technique in general: In qPCR the cycle at which signal appears reflects the starting amount.

The mark [9] stands for this setting: 100 μM foliar spraying, drought 9 d.
The mark [10] stands for this setting: 100 μM, 6 d drought, vs drought-stressed samples.
The mark [11] stands for this setting: rewatering at 7 d vs respective pretreated, drought-stressed samples at 6 d.

With `O=C(CCCO[N+](=O)[O-])Oc1ccc(-c2cc(=S)ss2)cc1` [NOSH], the “leaf MDA content (lipid peroxidation)” value in experiment [1] (setting [9]) is on record as “lowered”. Moreover, in the experiment with Medicago sativa plants [2], the “phenotype (vitality, turgor, greening)” value was “significantly improved vitality, turgor and greening”; the “recovery capacity (phenotype)” value is on record as “notably improved recovery capacity”; the “phenotype after second wave of drought stress” value is “maintained growth and vitality”. Besides, in the experiment with Medicago sativa plants [3], the “chlorophyll fluorescence (Fv/Fm)” value was “significantly higher” and the stomatal conductance entry was “significantly higher”. Besides, the “MDA content (lipid peroxidation)” value in the experiment on Medicago sativa plants [4] (setting [10]) was “statistically significant protection”. The “MDA content (lipid peroxidation)” value in the experiment on Medicago sativa plants [4] (7 d (after rewatering)) is listed as “maintained low MDA content levels close to those of control, watered samples”. Further, the H2O2 content result in the experiment on Medicago sativa plants [5] (setting [10]) was “significantly reversed”. Moreover, the H2O2 content entry in the experiment on Medicago sativa plants [5] (setting [11]) is listed as “ameliorated even further”. Also, the “nitric oxide (NO) content” value in the experiment with Medicago sativa plants [6] is given as “significantly reversed”. Also, in the experiment with Medicago sativa plants [7], the proline content result is “significantly lower proline content”. Moreover, in the experiment with Medicago sativa plants [8], the “relative gene expression of genes examined (NR, GST17, Cu/ZnSOD, FeSOD, APX, PIP)” value was “general suppression of most genes examined” and the “SOD isoforms (Cu/ZnSOD, FeSOD) relative gene expression” value is recorded as “significant transcriptional regulation (induction)”.

Turning to `O=C(CCCO[N+](=O)[O-])Oc1ccccc1C(=O)Oc1ccc(-c2cc(=S)ss2)cc1` [NOSH-A], in experiment [1] (100 μM foliar spraying, 30% (v/v) MetOH, drought 9 d, vs drought-stressed control, FIG. 2), the “lipid peroxidation levels (leaf MDA content)” value is recorded as “significantly lower lipid peroxidation levels”. In addition, the “leaf MDA content (lipid peroxidation)” value in experiment [1] (setting [9]) was “statistically significant protection”. The lipid peroxidation levels result in experiment [1] (100 μM, solvent 20% DMSO or 20% acetone (solvent itself toxic)) is reported as “lower lipid peroxidation levels”. Moreover, in the experiment with Medicago sativa plants [2], the “phenotype (vitality, turgor, greening)” value is “significantly improved vitality, turgor and greening”; the “recovery capacity (phenotype)” value is listed as “notably improved recovery capacity”; the “phenotype after second wave of drought stress” value is “maintained growth and vitality”. In the experiment on Medicago sativa plants [3], the “chlorophyll fluorescence (Fv/Fm)” value is listed as “significantly higher” and the stomatal conductance result is “significantly higher”. The “MDA content (lipid peroxidation)” value in the experiment on Medicago sativa plants [4] (setting [10]) is given as “statistically significant protection”. Further, the “MDA content (lipid peroxidation)” value in the experiment on Medicago sativa plants [4] (7 d (after rewatering)) was “maintained low MDA content levels close to those of control, watered samples”. For the same molecule, the H2O2 content result in the experiment with Medicago sativa plants [5] (setting [10]) is on record as “significantly reversed”. Besides, the H2O2 content entry in the experiment on Medicago sativa plants [5] (setting [11]) is on record as “ameliorated even further”. Moreover, in the experiment on Medicago sativa plants [6], the “nitric oxide (NO) content” value is given as “significantly reversed”. For the same molecule, the proline content entry in the experiment on Medicago sativa plants [7] is recorded as “significantly lower proline content”. Moreover, in the experiment on Medicago sativa plants [8], the “relative gene expression of genes examined (NR, GST17, Cu/ZnSOD, FeSOD, APX, PIP)” value was “general suppression of most genes examined” and the “SOD isoforms (Cu/ZnSOD, FeSOD) relative gene expression” value was “significant transcriptional regulation (induction)”.

Source of the values: patent US10071981B2, “Method of priming plants against abiotic stress factors” (Research Foundation of The City University of New York, priority 2014, dated 2018).
